Numbered stars: 1 amine (or outer) side, 2 acyl side, 3 side chain; on linkers, the order of the positions; unused ones are H or OH. Square brackets hold non-standard residues; d marks the D form. Peptide text beside a SMILES is read from it. * marks the point of attachment. X2 = CC1(C)C(=O)N(c2ccc(C#N)c(C(F)(F)F)c2)C(=S)N1c1ccc(C(=O)*)c(F)c1; X1 = O=C1CCC(N2C(=O)c3cccc(N(CC(=O)[*:2])[*:1])c3C2=O)C(=O)N1; EuK = O=C(O)CC[C@H](NC(=O)N[C@@H](CCCCN*)C(=O)O)C(=O)O; 2Nal = N[C@@H](Cc1ccc2ccccc2c1)C(=O)O
Experiments:
[1] = In vivo and ex vivo fluorescence imaging (biodistribution); parameters: species or system BALB/c nude mice; conditions: Cy7-labeled, 30 mg/kg intravenous
Method: Fig. 5 In vivo evaluation of Psa-AR enrichment and retention. a Representative immunohistochemical (IHC) staining of PSMA and AR expression in tumor tissues from three patients with prostate cancer before and after androgen deprivation therapy. The expression levels of PSMA and AR were assessed in serial sections at identical locations. Scale bars: 40 μm. b In vivo fluorescence images of 22Rv1 xenograft mice after treatment with Cy7-labeled P-AR and Psa-AR (30 mg/kg in 200 μL of PBS) for 2 h and 24 h. c Biodistribution in the tumors and main organs of 22Rv1 xenograft mice after injection with Cy7-labeled Psa-AR (30 mg/kg in 200 μL of PBS) for 24 h. (H Heart, Li Liver, Sp Spleen, Lu Lung, Ki Kidney, T Tumor). d Quantitative analysis of the fluorescence images in (c), n = 3 per group
BALB/c nude mice (6–8 weeks old, 16–18 g) were housed in a specific-pathogen-free (SPF) environment. All experiments were conducted in accordance with the Guidelines for the Management and Use of Laboratory Animals and were approved by the Animal Research Committee of the National Center for Nanoscience and Technology (NCNST 21-202503-0020). […] For ex vivo fluorescence imaging, 22Rv1 xenograft mice were intravenously injected with Cy7-labeled Psa-AR (30 mg/kg in 200 µL of PBS) and sacrificed 24 h post-injection to excise major organs (heart, liver, spleen, lung, and kidney) and tumors.

22Rv1 xenograft tumor = experiment: Antitumor efficacy in 22Rv1 xenograft mice; type: in vivo, BALB/c nude mice; conditions: for tumor volume / median survival: n = 6
Excerpt: To evaluate the therapeutic potential and superiority of Psa-AR in prostate cancer, we established subcutaneous xenograft tumor models using AR-mutant 22Rv1 cells.[51] All procedures strictly complied with the Guide for the Care and Use of Laboratory Animals and were approved by the Committee for Animal Research of the National Center for Nanoscience and Technology. When the tumor volume reached ~100 mm³, 22Rv1-bearing mice were randomized into three groups (n = 6/group): the PBS control, Psa-AR, and P-AR groups. Treatments were administered via tail vein injection every other day for five cycles. The tumor volume and body weight were monitored every other day for 20 days (Fig. 6a). […] The individual tumor growth curves for each group are presented in Supplementary Fig. 20. No obvious body weight loss was observed during treatment (Fig. 6c). […] To elucidate the mechanistic basis of tumor suppression, we quantitatively assessed AR and HSP90 protein expression in excised tumor tissues through IF. […] This dual-target degradation profile directly correlates with the observed therapeutic efficacy, validating the assembly driven target engagement and degradation strategy. […] To address the critical limitations of conventional PROTACs, particularly the Hook effect-induced nonlinear pharmacokinetics and narrow therapeutic window. We rigorously evaluated the dose-responsive antitumor efficacy of Psa-AR in 22Rv1 xenograft models. Mice bearing subcutaneous tumors received escalating doses (10, 20, or 30 mg/kg) via intravenous administration every 48 h for five consecutive treatment cycles. The tumor volume and body weight were evaluated for 20 days. Tumor volume was suppressed in a dose-dependent manner, with a mean tumor volume of […], a mean tumor volume of 536 mm^3 at 20 mg/kg and a mean tumor volume of 220 mm^3 at 10 mg/kg (Fig. 6h). The individual tumor growth curves for each group are presented in Supplementary Fig. 21. […] IF analysis of tumor sections provided spatially resolved dose-dependent quantification of AR and HSP90 proteolysis. […] Collectively, the dose-dependent tumor suppression and coordinated target proteolysis observed in the 22Rv1 xenograft model mechanistically validated the therapeutic superiority of in situ self-assembled Psa-AR. To systematically evaluate the therapeutic advantages of the dual-protein targeting strategy of Psa-AR through simultaneous degradation of AR and HSP90 in overcoming tumor drug resistance, this study compared the antitumor efficacy of Psa-AR with that of current clinical regimens (including the AR inhibitor enzalutamide, the HSP90 inhibitor pimitespib, and their combination) in 22Rv1 xenograft models (Fig. 7a). The experimental protocol was designed as follows: When the tumor volume reached ~100 mm³, the tumor-bearing mice were
Fig. 6 In vivo antitumor efficacy of Psa-AR. a Schematic illustration of the tumor inoculation and treatment protocol for 22Rv1 xenograft mice. (n = 6 per group) b Observation of the tumor inhibitory effect on 22Rv1 xenograft mice in PBS, P-AR, or Psa-AR (20 mg/kg in 200 μL of PBS) over 20 days of treatment. c Body weight changes in 22Rv1 xenograft mice in different treatment groups over 20 days. d Kaplan‒Meier survival curves of 22Rv1 xenograft mice in different groups over 20 days of treatment. e Immunofluorescence analysis of AR protein levels in 22Rv1 tumor tissues after treatment with PBS, P-AR, or Psa-AR (20 mg/kg in 200 μL of PBS) for 20 days. Scale bar: 20 μm. f Immunofluorescence analysis of the HSP90 protein levels in 22Rv1 tumor tissues after treatment with PBS, P-AR, or Psa-AR (20 mg/kg in 200 μL of PBS) for 20 days. Scale bar: 20 μm. g Terminal deoxynucleotidyl transferase (TdT) dUTP nick-end labeling (TUNEL) staining of tumors after treatment with PBS, P-AR, or Psa-AR (20 mg/kg in 200 μL of PBS) for 20 days. […]

For `CC1(C)C(=O)N(c2ccc(C#N)c(C(F)(F)F)c2)C(=S)N1c1ccc(C(=O)NCCCC[C@H](NC(=O)CNc2cccc3c2C(=O)N(C2CCC(=O)NC2=O)C3=O)C(=O)N[C@@H](CS)C(=O)N[C@@H](CCC(N)=O)C(=O)N[C@@H](Cc2ccc(O)cc2)C(=O)N[C@@H](CC(N)=O)C(=O)N[C@@H](CCC(N)=O)C(=O)N[C@@H](Cc2ccc(O)cc2)C(=O)N[C@@H](Cc2ccc(O)cc2)C(=O)N[C@@H](Cc2ccc3ccccc3c2)C(=O)NCCCC[C@H](NC(=O)N[C@@H](CCC(=O)O)C(=O)O)C(=O)O)c(F)c1` (stereo partly shown) [Psa-AR] (H-[X1]K(X2)CQYNQYY[2Nal]-EuK), the “tumor deposition relative to P-AR” value ([1]; 2 h, 22Rv1 xenograft mice) was 4 fold, the “tumor retention, residual signal at 24 h” value ([1]; 24 h) was 78% and the “extension of median survival compared with P-AR controls” value (22Rv1 xenograft tumor; 20 mg/kg study) was 1.8 fold. The “extension of median survival compared with PBS controls” value (22Rv1 xenograft tumor; 20 mg/kg study) was 2.2 fold, the tumor volume (22Rv1 xenograft tumor; 20 mg/kg tail vein every other day, five cycles, 20 days, PBS 1003 mm^3) was 347 mm^3 and the “TUNEL apoptotic index of tumor sections” value (22Rv1 xenograft tumor; 20 mg/kg, 20 days, compared with PBS control and P-AR) was “significant increase in the apoptotic index”. The “AR and HSP90 protein expression in excised tumor tissues” value (22Rv1 xenograft tumor; IF, 20 mg/kg, 20 days) was “AR and HSP90 reduction”, the median survival (22Rv1 xenograft tumor; K-M analysis, 20 mg/kg study, PBS 22 days) was 48 days and the “TUNEL analysis of tumor tissue sections” value (22Rv1 xenograft tumor; comparison study, 30 mg/kg, 20 days) was “increased activation of tumor apoptosis”. The tumor volume (22Rv1 xenograft tumor; comparison study, 20 days, Psa-AR 30 mg/kg i.v. every 2 days x5, enzalutamide 25 mg/kg, pimitespib 15 mg/kg, PBS 1017 mm^3) was 220 mm^3, the median survival (22Rv1 xenograft tumor; comparison study, PBS 21 days) was 46 days and the “body weight during the monitoring cycle” value (22Rv1 xenograft tumor; dose study, 10, 20, or 30 mg/kg, 20 days) was “no significant change in the body weight”. The “mean tumor volume at 20 mg/kg” value (22Rv1 xenograft tumor; dose study, intravenous every 48 h, five cycles, 20 days) was 536 mm^3.
